Values joined by “and” are separate entries in the source; they are usually repeats but may differ in a detail not shown here. Equal values may be shown once.

Common to all, as to assay: KinaseSeeker competition binding assay
The target of one experiment is T1, EGFR (G719S) (Homo sapiens, UniProt P00533, G719S).
T1 construct: made in house; host or cells: cell-free system (rabbit reticulocyte lysate)
The method, then: (§1) Compound Reno647 was profiled against the following panel of kinases at 2 μM using the KinaseSeeker™ assay: ABL1, AKT1, AKT2, AKT3, ALK, AURKA, AXL, BRAF, BTK, CDK2, CDK5, CDK7, CDK8, CSF1R, DDR1, EGFR del L747-P753 InsS, EGFR (L861Q), EGFR (G719S), EGFR, EGFR (L858R), EPHA2, EPHB2, FGFR3, FLT1/VEGFR1, FLT2/FGFR1, FLT3, FLT4/VEGFR3, GSK-3a, HER2, IGF1R, INSR, KIT, LIMK1, MET, MLK2/MAP3K10, RPS6KA5/MSK1, MUSK, p38a/MAPK12, PDGFRA, PDGFRB, PDK1, RET, RIPK2, RPS6KA1/RSK1, SRC, TEC, TESK1, TRKB, VEGFR2, and YES 1.
(§2) KinaseSeeker is a homogeneous competition binding assay where the displacement of an active site dependent probe by an inhibitor is measured by a change in luminescence signal (see FIG. 7). Luminescence readout translates into a highly sensitive and robust assay with low background and minimal interference from test compounds.
(§3) (Jester, Cox et al. 2010; Jester, Gaj et al. 2012): 10 mM stock of compound Reno647 was diluted in DMSO to a concentration of 50 μM. Prior to initiating a profiling campaign, the compound was evaluated for false positive against split-luciferase. The compound was then screened in duplicate against each of the kinases. For kinase assays, each Cfluc-Kinase was translated along with Fos-Nfluc using a cell-free system (rabbit reticulocyte lysate) at 30° C. for 90 min. A 24 μL aliquot of this lysate containing either 1 μL of DMSO (for no-inhibitor control) or compound solution in DMSO (2 LM final concentration) was incubated for 30 minutes at room temperature followed by 1 hour in the presence of a kinase specific probe. A 80 μL of luciferin assay reagent was added to each solution and luminescence was immediately measured on a luminometer.
(§4) The % Inhibition and % Activity Remaining were calculated using the following equations:
(§5) % inhibition=(ALUcontrol−ALUsample)×100
(§6) % activity=100−% inhibition.
(§7) The same assay design was used as described in example section 3.1.
(§8) 10 mM stock solutions of compound Reno647 was serially diluted in DMSO to make assay stocks. Prior to initiating IC50 determination, the test compound was evaluated for false positive against split-luciferase.
(§9) Reno647 was screened against 6 kinases (EGFR, EGFR del L747 P753 InsS, EGFR G719S, EGFR L858R, EGFR L861Q, RIPK2) at a minimum of 8 different concentrations in duplicate. For kinase assays, a 24 μL aliquot of lysate containing Cfluc-kinase and Fos-Nfluc was incubated for 30 minutes at room temperature with either 1 μL of DMSO (for no-inhibitor control) or compound solution in DMSO, followed by 1 hour incubation in the presence of a kinase specific probe. A 80 μL of luciferin assay reagent was added to each solution and luminescence was immediately measured on a luminometer.
(§10) % inhibition=(ALUcontrol−ALUsample)/ALcontrol×100
(§11) The % Activity was plotted against compound concentration and the IC50 was determined for each compound using an 8-point curve.

Another experiment concerns the target T2, EGFR (Homo sapiens, UniProt P00533).
T2 construct: made in house; host or cells: cell-free system (rabbit reticulocyte lysate)
The method, then:
as §1, §2, §3, §4, §5, §6, §7, §8, §9, §10, §11

The target of another experiment is T3, EGFR (L858R) (Homo sapiens, UniProt P00533, L858R).
T3 construct: made in house; host or cells: cell-free system (rabbit reticulocyte lysate)
T3 sequence (P00533 25-1210 L858R): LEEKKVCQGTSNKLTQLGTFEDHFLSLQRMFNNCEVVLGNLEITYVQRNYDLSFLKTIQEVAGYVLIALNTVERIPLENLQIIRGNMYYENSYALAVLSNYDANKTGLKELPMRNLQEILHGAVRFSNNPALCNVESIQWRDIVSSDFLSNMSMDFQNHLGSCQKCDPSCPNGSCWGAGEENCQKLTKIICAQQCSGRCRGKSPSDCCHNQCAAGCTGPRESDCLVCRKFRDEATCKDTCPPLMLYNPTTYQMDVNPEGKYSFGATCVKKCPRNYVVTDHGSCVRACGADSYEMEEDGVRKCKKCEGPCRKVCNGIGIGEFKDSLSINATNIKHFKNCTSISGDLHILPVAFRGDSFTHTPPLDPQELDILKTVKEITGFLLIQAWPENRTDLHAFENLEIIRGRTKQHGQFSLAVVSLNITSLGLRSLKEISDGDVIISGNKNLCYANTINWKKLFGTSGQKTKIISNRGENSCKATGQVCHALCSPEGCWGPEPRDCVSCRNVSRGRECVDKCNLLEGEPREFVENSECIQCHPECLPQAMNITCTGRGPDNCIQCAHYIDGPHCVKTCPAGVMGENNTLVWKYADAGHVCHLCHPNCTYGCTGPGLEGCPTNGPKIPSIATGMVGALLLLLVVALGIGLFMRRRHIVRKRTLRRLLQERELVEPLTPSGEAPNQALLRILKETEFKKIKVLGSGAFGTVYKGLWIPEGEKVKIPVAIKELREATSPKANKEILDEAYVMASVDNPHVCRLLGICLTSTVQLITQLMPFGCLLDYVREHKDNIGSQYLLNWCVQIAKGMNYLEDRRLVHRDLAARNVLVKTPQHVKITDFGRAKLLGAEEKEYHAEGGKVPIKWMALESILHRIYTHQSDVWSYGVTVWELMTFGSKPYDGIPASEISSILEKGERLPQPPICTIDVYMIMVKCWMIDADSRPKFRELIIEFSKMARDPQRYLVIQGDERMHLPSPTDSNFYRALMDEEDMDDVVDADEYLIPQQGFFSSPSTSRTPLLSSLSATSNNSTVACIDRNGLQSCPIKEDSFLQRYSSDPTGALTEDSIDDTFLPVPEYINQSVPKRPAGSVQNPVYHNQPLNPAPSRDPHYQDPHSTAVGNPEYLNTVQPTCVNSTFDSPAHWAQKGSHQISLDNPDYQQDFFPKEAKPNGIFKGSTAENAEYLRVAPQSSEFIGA
Here is the method:
as §1, §2, §3, §4, §5, §6, §7, §8, §9, §10, §11

A further experiment deals with T4, EGFR del L747-P753 Ins S (Homo sapiens, UniProt P00533, DEL747-752/P753S).
T4 construct: made in house; host or cells: cell-free system (rabbit reticulocyte lysate)
T4 sequence (P00533 with tags, fused parts or gaps DEL747-752/P753S): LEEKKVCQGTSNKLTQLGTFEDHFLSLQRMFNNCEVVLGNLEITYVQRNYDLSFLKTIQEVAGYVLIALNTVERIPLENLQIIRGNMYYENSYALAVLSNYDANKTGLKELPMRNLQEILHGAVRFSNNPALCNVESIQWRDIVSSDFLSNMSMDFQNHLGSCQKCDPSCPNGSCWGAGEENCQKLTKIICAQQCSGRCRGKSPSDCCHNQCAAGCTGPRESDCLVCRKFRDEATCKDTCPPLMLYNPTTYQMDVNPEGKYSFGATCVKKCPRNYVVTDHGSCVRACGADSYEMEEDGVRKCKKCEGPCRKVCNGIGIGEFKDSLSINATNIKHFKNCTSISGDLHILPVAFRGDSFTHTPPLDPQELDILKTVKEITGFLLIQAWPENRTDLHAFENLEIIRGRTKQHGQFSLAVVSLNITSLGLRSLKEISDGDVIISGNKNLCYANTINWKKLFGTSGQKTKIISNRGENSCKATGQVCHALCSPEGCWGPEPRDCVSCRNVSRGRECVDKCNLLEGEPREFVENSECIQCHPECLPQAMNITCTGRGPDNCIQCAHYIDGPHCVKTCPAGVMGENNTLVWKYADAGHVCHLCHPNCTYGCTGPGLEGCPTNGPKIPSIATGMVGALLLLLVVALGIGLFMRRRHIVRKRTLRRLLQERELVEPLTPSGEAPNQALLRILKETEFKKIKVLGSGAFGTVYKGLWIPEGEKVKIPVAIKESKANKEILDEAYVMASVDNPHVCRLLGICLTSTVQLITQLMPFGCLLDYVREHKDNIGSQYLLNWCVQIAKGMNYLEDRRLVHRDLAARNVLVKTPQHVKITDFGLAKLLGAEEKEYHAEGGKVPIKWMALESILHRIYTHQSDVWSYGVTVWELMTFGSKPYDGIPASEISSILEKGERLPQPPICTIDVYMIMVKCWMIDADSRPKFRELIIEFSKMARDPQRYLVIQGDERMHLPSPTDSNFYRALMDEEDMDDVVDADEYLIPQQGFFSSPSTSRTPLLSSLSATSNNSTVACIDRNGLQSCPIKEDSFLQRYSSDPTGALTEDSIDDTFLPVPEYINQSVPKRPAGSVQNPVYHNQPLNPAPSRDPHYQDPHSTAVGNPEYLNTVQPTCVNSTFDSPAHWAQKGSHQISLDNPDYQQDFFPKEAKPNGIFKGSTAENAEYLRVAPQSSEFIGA
Here is the method:
as §1, §2, §3, §4, §5, §6, §7, §8, §9, §10, §11

A further experiment has as its target T5, EGFR(L861Q) (Homo sapiens, UniProt P00533, L861Q).
T5 construct: made in house; host or cells: cell-free system (rabbit reticulocyte lysate)
Here is the method:
as §1, §2, §3, §4, §5, §6, §7, §8, §9, §10, §11

T2 sequence (P00533 25-1210): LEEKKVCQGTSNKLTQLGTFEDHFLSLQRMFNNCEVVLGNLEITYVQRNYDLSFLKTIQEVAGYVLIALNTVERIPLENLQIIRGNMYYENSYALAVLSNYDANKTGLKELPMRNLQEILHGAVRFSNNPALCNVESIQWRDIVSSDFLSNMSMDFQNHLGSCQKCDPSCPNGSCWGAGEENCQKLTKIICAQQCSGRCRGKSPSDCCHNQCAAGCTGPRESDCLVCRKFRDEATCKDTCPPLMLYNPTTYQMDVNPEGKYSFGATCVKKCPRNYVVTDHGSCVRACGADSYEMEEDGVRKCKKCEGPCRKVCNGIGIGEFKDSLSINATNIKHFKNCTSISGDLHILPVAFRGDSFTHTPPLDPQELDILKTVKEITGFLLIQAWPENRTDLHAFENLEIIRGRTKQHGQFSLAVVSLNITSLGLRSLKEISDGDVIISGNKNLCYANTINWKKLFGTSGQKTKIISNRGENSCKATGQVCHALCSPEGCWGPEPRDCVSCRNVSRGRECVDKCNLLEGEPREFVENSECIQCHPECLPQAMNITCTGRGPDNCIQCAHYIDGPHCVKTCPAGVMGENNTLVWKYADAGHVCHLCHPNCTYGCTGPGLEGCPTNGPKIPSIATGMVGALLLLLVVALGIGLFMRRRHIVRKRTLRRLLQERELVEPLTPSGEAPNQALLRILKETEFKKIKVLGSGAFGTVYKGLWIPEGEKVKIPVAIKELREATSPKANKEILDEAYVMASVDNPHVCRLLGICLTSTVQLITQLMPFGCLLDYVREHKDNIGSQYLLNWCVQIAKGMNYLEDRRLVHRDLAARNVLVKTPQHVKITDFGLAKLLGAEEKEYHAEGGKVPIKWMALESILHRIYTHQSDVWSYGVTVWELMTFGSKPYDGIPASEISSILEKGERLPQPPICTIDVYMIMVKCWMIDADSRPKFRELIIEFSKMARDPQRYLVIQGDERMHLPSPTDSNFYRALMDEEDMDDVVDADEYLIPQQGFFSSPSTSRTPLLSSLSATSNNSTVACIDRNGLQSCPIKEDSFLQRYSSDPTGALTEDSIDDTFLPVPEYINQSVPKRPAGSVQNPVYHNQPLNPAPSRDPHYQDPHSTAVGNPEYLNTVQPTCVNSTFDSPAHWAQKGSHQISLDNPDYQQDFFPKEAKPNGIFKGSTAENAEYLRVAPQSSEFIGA
T5 sequence (P00533 25-1210 L861Q): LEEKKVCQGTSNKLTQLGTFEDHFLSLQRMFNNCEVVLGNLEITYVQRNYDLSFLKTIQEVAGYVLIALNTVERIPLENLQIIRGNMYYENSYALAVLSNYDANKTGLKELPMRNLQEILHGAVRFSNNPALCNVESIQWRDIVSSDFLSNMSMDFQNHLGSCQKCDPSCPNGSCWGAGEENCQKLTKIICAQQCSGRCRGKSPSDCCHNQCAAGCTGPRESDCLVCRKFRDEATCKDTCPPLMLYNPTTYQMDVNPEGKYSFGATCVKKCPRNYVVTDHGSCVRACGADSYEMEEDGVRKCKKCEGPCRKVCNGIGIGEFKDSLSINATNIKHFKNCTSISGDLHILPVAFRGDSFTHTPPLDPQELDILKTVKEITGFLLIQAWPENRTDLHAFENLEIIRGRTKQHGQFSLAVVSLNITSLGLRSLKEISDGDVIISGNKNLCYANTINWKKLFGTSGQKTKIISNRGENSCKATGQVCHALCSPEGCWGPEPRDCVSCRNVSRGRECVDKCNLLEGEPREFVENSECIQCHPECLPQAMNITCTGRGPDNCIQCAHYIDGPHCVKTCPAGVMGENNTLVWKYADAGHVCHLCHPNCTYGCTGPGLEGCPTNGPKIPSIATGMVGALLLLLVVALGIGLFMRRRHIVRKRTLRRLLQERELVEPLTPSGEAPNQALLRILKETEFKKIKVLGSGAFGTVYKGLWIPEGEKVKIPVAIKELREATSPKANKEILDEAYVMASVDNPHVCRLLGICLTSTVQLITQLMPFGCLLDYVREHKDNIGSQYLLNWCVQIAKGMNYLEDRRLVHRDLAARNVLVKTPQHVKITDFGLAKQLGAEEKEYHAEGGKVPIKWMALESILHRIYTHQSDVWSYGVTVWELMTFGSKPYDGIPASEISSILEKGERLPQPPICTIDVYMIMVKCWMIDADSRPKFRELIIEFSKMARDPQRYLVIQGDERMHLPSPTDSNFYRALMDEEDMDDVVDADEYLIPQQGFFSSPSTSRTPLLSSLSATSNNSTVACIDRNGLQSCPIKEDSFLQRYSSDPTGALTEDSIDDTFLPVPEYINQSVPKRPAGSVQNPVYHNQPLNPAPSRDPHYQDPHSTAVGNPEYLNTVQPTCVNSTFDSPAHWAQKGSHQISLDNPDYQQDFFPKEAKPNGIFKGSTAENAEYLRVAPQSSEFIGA

For the compound `C#Cc1cccc(Nc2ncnc3cc(OCCOC)c(NC(=O)c4ccc(F)c([N+](=O)[O-])c4)cc23)c1` [Reno647, 4-Fluoro-N-[4-(3-ethynyl-phenylamino)-7-(2-methoxy-ethoxy)-quinazolin-6-yl]-3-nitro-benzamide], the remaining binding at 2 µM turned out to be 30.2% on EGFR (G719S) (2 μM, EGFR (G719S)); 66.7% at EGFR (2 μM, wild-type EGFR); 7.2% at EGFR (L858R) (2 μM, EGFR (L858R)); 14.8% at EGFR del L747-P753 Ins S (2 μM, EGFR del L747-P753 Ins S); 20.7% on EGFR(L861Q) (2 μM, EGFR(L861Q)). For the same compound, the IC50 – broadly, the midpoint of a concentration-inhibition curve – at EGFR (G719S) (8-point curve, duplicate) was 0.971 µM; at EGFR (8-point curve, duplicate, read-out: IC50 wild-type of EGFR) it was 25 µM; at EGFR (L858R) (8-point curve, duplicate) it was 0.159 µM; at EGFR del L747-P753 Ins S (8-point curve, duplicate, read-out: IC50 EGFR del L747-P753 InsS), 0.0777 µM and 0.077 µM; on EGFR(L861Q) (8-point curve, duplicate), 0.574 µM.

(Values after patent publication US20190169134A1, “NOVEL CLASS OF QUINOLONE HETEROCYCLIC AROMATIC MOLECULES FOR CANCER TREATMENT” (RenoTarget Therapeutics, Inc., priority 2016, published 2019).)
